In patent US10995126B2, “Immunogenic peptide containing a b cell epitope of tumor associated antigen L6” (National Health Research Institutes, priority 2016, dated 2021):
No end group written: not given here.

Legend:
[1] = test system: anti-TAL6 monoclonal antibody L6; assay: ELISA epitope mapping: detection of coated TAL6 peptides by L6 mAb; format: binding; details: plate coated with peptide 10 μg/ml; antibody 1:500
Protocol: FIG. 1 includes (A) a scheme showing the overlapping peptides that cover the extracellular domains of TAL6: EL1 (residues 31 to 46 of SEQ ID NO: 1); EL2 (residues 114 to 164 of SEQ ID NO: 1); EP1 (SEQ ID NO: 4); EP2 (SEQ ID NO: 17); EP3 (SEQ ID NO: 18); and EP4 (SEQ ID NO: 19); and (B) a graph showing binding of the peptides to anti-TAL6 antibodies. A 96-well plate was coated with the indicated peptides (10 μg/ml) in each well. Three anti-TAL6 antibodies (1:500) were used to detect these peptides. CP: Control peptide.
FIG. 10 is a graph showing identification of residues in EP1 that are important for antibody binding using alanine scanning. The amino acid residues in EPI were individually replaced with alanine to generate EP1-1 to EP1-20 peptides. Monoclonal antibody L6 was used to detect these peptides. EP1 is a positive control and EP-3 is a negative control.
Three purified anti-TAL6 monoclonal antibodies (1F4, 9C7, L6) were used to detect the surface expression TAL6 on EL-4 (EL-4/L6) cells. See Chang et al., Int J Cancer, 116 (2005) 243-252. […] To further map the antibody-binding epitopes, five peptides (EL1 and EP1-4) that cover the EL1 and EL2 extracellular loops were used to determine the linear B cell epitopes using ELISA. […]
(§1) For antibody epitope mapping, L6, 9C7 and 1F4 Mabs were assayed by ELISA. […] Absorbance was measured at 450 nm.

native TAL6 = target: T1, native TAL6 (Homo sapiens, UniProt P30408); assay: Anti-TAL6 antibody in sera of immunized mice, cell-based ELISA; format: in vivo, C57BL/6 mice; details: formulated with IFA/Th, sera 1:500, EL4-L6 O.D. minus EL4 O.D.
T1 construct: expressed in transfected cells; host or cells: EL-4 (mouse lymphoma) cells expressing TAL6 (EL-4/L6, EL4-L6)
T1 sequence (P30408 1-202): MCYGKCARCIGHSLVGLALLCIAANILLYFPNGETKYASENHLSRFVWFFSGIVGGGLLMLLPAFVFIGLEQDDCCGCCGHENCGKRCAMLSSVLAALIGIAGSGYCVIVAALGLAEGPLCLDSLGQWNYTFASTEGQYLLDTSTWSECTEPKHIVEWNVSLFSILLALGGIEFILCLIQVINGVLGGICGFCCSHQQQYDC
Protocol: (§2) FIG. 2 is a set of graphs showing that immunization of WT mice with the EP1 peptide induced anti-tumor immunity. EP1 or positive control MCF-7/TAL6 cells formulated with incomplete Freund's adjuvant (IFA) were administered to mice twice at a two-week interval. (A) Anti-TAL6 antibody titers were determined by using cell-based ELISA. Antigen-specific antibody was calculated as: EL4-L6 (O.D.)−EL4 (O.D.). (B) TAL6-specific ADCC was determined in a Cr^51 release assay. The lysis percentage was calculated as immunized serum (lysis %)−naïve serum (lysis %). ***P<0.001.
To test whether the EP1 peptide could raise antibodies that bind native TAL6, the EP1 peptide or MCF-7/L6 cells (as positive control) were formulated with IFA/Th and administered to C57BL/6 mice. Sera from immunized mice were collected and the anti-TAL6 antibody titers were analyzed using cell-based ELISA. […] See FIG. 2, A. Whether EP1 immunization could induce antibody-dependent cellular cytotoxicity (ADCC) was also investigated. Sera (1:100) from mice immunized with either EP1 or MCF-7/L6 cells could kill TAL6-expressed EL4 (EL4/L6) cells but not EL4 parental cells (61.82%±6.12% v.s. 0.36%±0.96% and 65.54%±1.77% v.s. 11.41%±3.094%). […]
as §1

[2] = test system: TAL6-expressed EL4 (EL4/L6) cells; assay: ADCC Cr51 release assay with sera of immunized mice, EL4/L6 target cells; format: cell-based; details: C57BL/6 mice, IFA; sera 1:100; immunized serum lysis % minus naïve serum lysis %
Protocol: as §2
FIG. 6 is a set of graphs showing that immunization with PELC/CpG/Th-A2-5-EP1 induced high levels of humoral and cellular immunity in HLA-A2 mice. The Th-A2-5-EP1 peptide was formulated with different adjuvants. […] (A) IFN-γ-secreting cells were determined using IFN-γ ELISpot assay. Results are expressed as mean SD. ***P<0.001. […] (D) TAL6-specific ADCC was determined by Cr^51 release assay. The lysis percentage was calculated as: immunized serum (lysis %)—naïve serum (lysis %) ***P<0.001.
(§3) To test whether the EP1 peptide could raise antibodies that bind native TAL6, the EP1 peptide or MCF-7/L6 cells (as positive control) were formulated with IFA/Th and administered to C57BL/6 mice. Sera from immunized mice were collected and the anti-TAL6 antibody titers were analyzed using cell-based ELISA. […]

EL4 parental cells = assay: ADCC Cr51 release assay with sera of immunized mice, EL4 parental target cells; format: cell-based; details: C57BL/6 mice, IFA; sera 1:100; immunized serum lysis % minus naïve serum lysis %
Protocol: as §2, §3
(§4) Mice spleen cells were used as effector cells for the ADCC assay. […] After 6 hr, supernatants were harvested to measure the radioactivity using a gamma counter. Spontaneous release was measured in wells containing target cells alone. […] Percent cytotoxicity was determined according to the formula: percent lysis=100×(experimental ^51Cr release−spontaneous ^51Cr release)/(maximal ^51Cr release−spontaneous ^51Cr release).

B16-L6 cells = assay: Immunization then subcutaneous B16-L6 tumor challenge in WT mice; format: in vivo, C57BL/6 mice
Protocol: EP1 or positive control MCF-7/TAL6 cells formulated with incomplete Freund's adjuvant (IFA) were administered to mice twice at a two-week interval. (A) At 7 days after the final immunization, B16-L6 (2×10^4) cells were inoculated subcutaneously. Tumor growth was monitored 2-3 times per week. (B) The survival rate of the mice was determined.
Mice were immunized with 50 mg of EP1 formulated with the indicated adjuvants twice at a 14-day interval. (A) At 7 days after the second immunization, 2×10^4 of B16/TAL6 cells were injected subcutaneously. Tumor growth was monitored 2-3 times per week. Results obtained are expressed as mean SD (n=6). (B) Mouse survival rate was monitored. Results are expressed as means ±SD (*P<0.05.**P<0.01).
See FIG. 2, B. To investigate if the EP1 peptide could induce anti-tumor activity, mice were immunized with EP1 peptide and then challenged with B16-L6 cells (2×10^4/mouse) at 7 days after the final immunization.
The EP1 peptide was formulated with different adjuvants. Mice were immunized with 50 mg of the formulations twice at a 14-day interval. At 7 days after the second immunization, 2×10^4 B16/TAL6 cells were injected subcutaneously to the mice. Tumor growth was monitored 2-3 times per week.
HLA-A2 Tg mice were injected subcutaneously (s.c.) twice at a 2-week interval with peptide formulated in IFA, alum, DOTAP liposome, PELC nanoparticles, or TLR9 agonist CpG. Seven days after the second immunization, the B16-L6-A2 or B16-L6 cells (2×10^4) were inoculated s.c. on the opposite site of the peptide injection. Tumor sizes were measure 2-3 times per week. Tumor volume was calculated using the formula: tumor volume=length×width×width/2.

[3] = test system: lung cancer cell line H2981; assay: ADCC Cr51 release assay with sera of immunized mice, H2981 target cells; format: cell-based, human; details: formulated with PELC/CpG; sera collected at 6 weeks
Protocol: (§5) FIG. 9 is a set of graphs showing that peptide formulated with different adjuvants induced antibody-dependent cellular cytotoxicity (ADCC) against human cancer cells. Mice were immunized with peptide Th-EP1-A2-5 in various adjuvants twice at a two-week interval. Sera were collected at 6 weeks for ADCC assay. (A) Lung cancer cell line H2981 was used as a target. (B) Human breast cancer cell lines MCF7 and MCF7-TAL6 were used as targets. TAL6-specific ADCC was determined by Cr^51 release assay. The lysis percentage was calculated as: immunized serum (lysis %)−naïve serum (lysis %) ***P<0.001.
(§6) Mice were immunized with Th-A2-5-EP1 formulated with different adjuvants twice at a two-week interval. Sera was collected at 6 weeks for ADCC assay. […] TAL6-specific ADCC was determined by Cr51 release assay. The lysis percentage was calculated by subtracting the […].
as §4

[4] = test system: breast cancer cell lines MCF7 and MCF7-TAL6; assay: ADCC Cr51 release assay with sera of immunized mice, MCF7 and MCF7-TAL6 target cells; format: cell-based, human; details: formulated with PELC/CpG; sera collected at 6 weeks
Protocol: as §5, §6, §4

GLAEGPLCLDSLGQWNYTFA [EP1]
detection of the peptide by L6 mAb (ELISA) [1]: could be detected by L6 mAb | anti-TAL6 antibody amount in sera versus vehicle (PBS) (native TAL6): significantly higher amount of antibody | ADCC lysis of EL4/L6 cells [2]: 61.82%±6.12% | ADCC lysis of EL4 parental cells (EL4 parental cells): 0.36%±0.96% | tumor growth (B16-L6 cells; formulated with IFA, immunized twice, B16-L6 2×10^4/mouse s.c. 7 days after final immunization): significantly inhibited tumor growth | anti-tumor effects (tumor growth, survival) (B16-L6 cells; formulated with PELC/CpG, 50 mg twice at 14-day interval, 2×10^4 B16/TAL6 cells s.c.): induced anti-tumor effects | anti-tumor effect (tumor growth) (B16-L6 cells; formulated with different adjuvants, 50 mg twice at 14-day interval, 2×10^4 B16/TAL6 cells s.c.): exhibited an anti-tumor effect

AKFVAAWTLKAAAAAALLMLLPAFVAAAGLAEGPLCLDSLGQWNYTFA [Th-A2-5-EP1]
ADCC cytotoxicity, rank among adjuvant formulations [3]: strongest cytotoxicity | ADCC cytotoxicity, rank among adjuvant formulations [4]: strongest cytotoxicity
